Molecular target: T1, hSK3 channels (Homo sapiens, UniProt Q9UGI6)
T1 construct: expressed in transfected cells; host or cells: HEK293
Assay: Whole-cell patch-clamp recording of ionic current through SK channels (subtype 3) in HEK293 cells expressing hSK3
Assay type: cell-based
Protocol: The ionic current through small-conductance Ca^2+-activated K^+ channels (SK channels, subtype 3) is recorded using the whole-cell configuration of the patch-clamp technique in a classic patch-clamp set-up using HEK293 tissue culture cells expressing hSK3 channels as described in e.g. WO 2006/100212.
The SC100 value determined is defined as the Stimulating Concentration required for increasing the baseline current by 100%. The SC100 value determined for Compound 6.5 of the invention was 0.3 μM, which is an indication of its SK3 activating properties.

`Cc1cc(C)n(-c2nc(N(C(=O)OCC(C)C)c3ccc(Cl)cc3)c3ncn(C)c3n2)n1` [Compound 6.5, (4-Chloro-Phenyl)-[2-(3,5-Dimethyl-Pyrazol-1-yl)-9-Methyl-9H-Purin-6-yl]-Carbamic Acid Isobutyl Ester] was tested, and the “SC100 (Stimulating Concentration required for increasing the baseline current by 100%)” value was 0.3 µM.

Reference: patent publication US8268838B2, “Substituted purinyl-pyrazole derivatives and their use as potassium channel modulators” (Neurosearch A/S, priority 2008, dated 2012)
